Data: US20230295133A1, “PROCESS FOR PREPARING A COMPOUND USEFUL TO TREAT MYCOSES” (PULMOCIDE LIMITED, priority 2014, published 2023)
Converted amounts (≈) assume the structure as drawn. Like-named read-outs stand apart in the source and are kept apart here.

Key:
[1] = tested on: Cryptococcus neoformans ATCC24067; test: Fungus panel screening, CLSI broth microdilution; assay type: cell-based
Protocol: (§1) Fungus panel screening was conducted by Eurofins Panlabs Inc. The MIC and MIC50 values of the test articles were determined following the guidelines of the Clinical and Laboratory Standards Institute, broth microdilution methods for yeast (CLSI M27-A2), (CLSI, 2002) and for filamentous fungi (CLSI M38-A), (CLSI, 2008).

[2] = tested on: Aspergillus flavus ATCC204304; test: Fungus panel screening, CLSI broth microdilution; assay type: cell-based
Protocol: as §1

[3] = tested on: Chaectomium globosum ATCC44699; test: Fungus panel screening, CLSI broth microdilution; assay type: cell-based
Protocol: as §1

[4] = tested on: Aspergillus fumigatus NCPF2010; test: Broth microdilution assay (modified EUCAST); assay type: cell-based; details: Aspergillus fumigatus
In short: (§2)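 Spores from 3-day Sabouraud cultures (working suspension 2 × 10^5 spores/mL) were added to an equal volume of RPMI-1640 (2 mM L-glutamine, 0.5% BSA, 2% glucose, 0.165 M MOPS, pH 7) containing compound, in quadruplicate. After 48 hr at 35 °C, OD530 gave percent inhibition. MIC50, MIC75 and MIC90 came from concentration-response curves.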

BEAS2B cells = test: Cell viability: resazurin assay; assay type: cell-based, human; details: n = 3-5
In short: (§3)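 BEAS2B cells in RPMI-LHC8, exposed to compound for 1 day at 37 °C (0.5% DMSO final), then resazurin added for a further 4 h. Fluorescence (ex 545/em 590 nm) gives % viability loss vs 0.5% DMSO vehicle; CC50 from concentration-response curve.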

[5] = tested on: Aspergillus fumigatus NCPF7099; test: Broth microdilution assay (modified EUCAST); assay type: cell-based; details: Aspergillus fumigatus, NCPF7099, n = 3, read-out: MIC75 against Aspergillus fumigatus isolate NCPF7099
In short: as §2

[6] = tested on: Aspergillus fumigatus L98H (TR34/L98H); test: Broth microdilution assay (modified EUCAST); assay type: cell-based; details: Aspergillus fumigatus, read-out: MIC75 against Aspergillus fumigatus isolate L98H
In short: as §2

[7] = tested on: Aspergillus fumigatus (NCPF2010); test: Resazurin-microtitre assay of planktonic fungus growth; assay type: cell-based; details: Aspergillus fumigatus
Protocol: This assay was conducted using a modified, published method (Monteiro et al., 2012). Spores of aspergillus fumigatus (NCPF2010, Public Health England, Wiltshire) were cultured in Sabouraud dextrose agar for 3 days. A stock spore suspension was prepared from a Sabouraud dextrose agar culture by washing with PBS-tween (10 mL; PBS containing 0.05% Tween-20, 100 U/mL Penicillin and 100 U/mL Streptomycin). The spore count was assessed using a Neubauer haemocytometer and, using PBS adjusted to 10^6 spores/mL. A working suspension of spores (10^4 spores/mL) was prepared in filter sterilised MOPS RPMI-1640 (50 mL; RPMI-1640 containing 2 mM L-glutamine, 2% glucose and 0.165 M MOPS, buffered to pH 7 with NaOH). Resazurin sodium salt (100 µL of 1% solution; Sigma-Aldrich, Dorset, UK) was added to the spore suspension and mixed well. The spore suspension-resazurin mixture (100 µL/well) was added to 384-well plates (Catalogue number 353962, BD Falcon, Oxford, UK).
Simultaneously, test compounds (0.5 µL DMSO solution) were added to 100 µL of the spore-resazurin mixture in quadruplicate to provide a final DMSO solution of 0.5% using an Integra VIAFLO 96 (Intergra, Zizers, Switzerland). For non-spore control wells, MOPS-RPMI-resazurin solution (100 µL) was added instead of the spore-resazurin mixture. The plate was covered with a Breathe Easier membrane (Catalogue No Z763624, Sigma-Aldrich, Dorset, UK), and incubated (35° C., 5% CO2) until fluorescence in the inoculated wells was double that of the control wells (around 24 hr). The fluorescence of each well (545 nm (excitation) / 590 nm (emission), gain 800, focal height 5.5 mm) was determined using a multi-scanner (Clariostar: BMG, Buckinghamshire, UK). The percentage inhibition for each well was calculated and the MIC50, MIC75 and MIC90 values were calculated from the concentration-response curve generated for each test compound.

[8] = Cell viability: resazurin assay; assay type: cell-based, human; details: human, BEAS2B cells; n = 3-5
In short: as §3

[9] = tested on: aspergillus fumigatus (ATCC 13073 [strain: NIH 5233]); test: In vivo anti-fungal activity, prophylactic and therapeutic treatment of infected immunocompromised neutropenic mice; design: species or system A/J mice; details: prophylactic treatment (days 0, 1, 2 and 3); 0.4 mg/mL
[10] = tested on: aspergillus fumigatus infection of BEAS2B cells; test: Aspergillus fumigatus infection of bronchial epithelial cells (GM in supernatant); assay type: cell-based; details: Aspergillus fumigatus, read-out: MIC50 Infection of BEAS2B cells
In short: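 BEAS2B cells in 10% FBS RPMI-1640 pre-treated with compound (0.5% DMSO final) for 1 hr at 35 °C, then infected with A. fumigatus conidia (0.5×10^5/ml suspension) for 24 hr at 35 °C. Galactomannan in 1:20-diluted supernatant measured by Platelia GM-EIA; IC50 from percent-inhibition concentration-response curves.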

[11] = tested on: Aspergillus fumigatus NCPF7100; test: Broth microdilution assay (modified EUCAST); assay type: cell-based; details: Aspergillus fumigatus, NCPF7100, read-out: MIC75 against Aspergillus fumigatus isolate NCPF7100
[12] = 50% inhibition by visual inspection (CLSI)
[13] = 100% inhibition by visual inspection (CLSI), read-out: MIC100

C[C@@H](c1ncncc1F)[C@](O)(Cn1cncn1)c1ccc(F)cc1F [Voriconazole]
MIC50 [1, 12]: 0.016 mg/L (≈ 0.0458 µM) | MIC [1, 13]: 1 mg/L (≈ 2.86 µM) | MIC50 [2, 12]: 1 mg/L (≈ 2.86 µM) | MIC [2, 13]: 2 mg/L (≈ 5.73 µM) | MIC50 [3, 12]: 0.5 mg/L (≈ 1.43 µM) | MIC [3, 13]: 1 mg/L (≈ 2.86 µM) | MIC ([4]; NCPF2010, broth microdilution assay, n = 3, read-out: MIC75 against Aspergillus fumigatus isolate NCPF2010): 0.496 µM (≈ 173 ng/mL) | CC50 (BEAS2B cells): > 28.6 µM

Cc1cc(N2CCN(c3ccc(C(=O)Nc4ccc(F)cc4F)cc3)CC2)ccc1OC[C@@H]1CO[C@@](Cn2cncn2)(c2ccc(F)cc2F)C1 [Example 2, 4-(4-(4-(((3R,5R)-5-((1H-1,2,4-Triazol-1-yl)Methyl)-5-(2,4-Difluorophenyl) Tetrahydrofuran-3-yl)Methoxy)-3-Methylphenyl)Piperazin-1-yl)-N-(2,4-Difluorophenyl) Benzamide]
MIC ([4]; NCPF2010, read-out: MIC75 against Aspergillus fumigatus isolate NCPF2010): 0.007 µM (≈ 4.91 ng/mL) | MIC [5]: 0.0283 µM (≈ 19.8 ng/mL) | MIC [6]: 0.0816 µM (≈ 57.2 ng/mL) | MIC50 ([7]; NCPF2010, read-out: MIC50 Planktonic fungal growth): 0.00074 µM (≈ 0.519 ng/mL) | MIC ([7]; NCPF2010, read-out: MIC75 Planktonic fungal growth): 0.00306 µM (≈ 2.14 ng/mL) | CC50 at 1 day [8]: > 14.3 µM | % Inhibition versus Infected Controls, GM in BALF [9]: 43% | % Inhibition versus Infected Controls, GM in serum [9]: 27% | % Inhibition versus Infected Controls, Lung Fungal Load [9]: 25% | MIC50 [10]: 0.00142 µM (≈ 0.995 ng/mL) | MIC [11]: 0.0213 µM (≈ 14.9 ng/mL)
